# From patent US20230270696A1, “MEDICINAL USE OF FINGOLIMOD IN PREVENTION AND TREATMENT OF NEURODEGENERATIVE DISEASES CAUSED BY SPHINGOLIPID DISORDERS” (priority 2020, published 2023)
# Structures can show the parent of a compound that is named as a salt.
# Experiments:
# [1] = test system: sphingomyelinase; test: Sphingomyelinase activity assay (Sphingomyelinase Assay Kit ab138876) with or without FTY720; format: biochemical; settings: different sphingomyelinase concentrations, sphingomyelin as substrate, 60 min at 37° C., absorbance
# Procedure: Different concentrations (horizontal axis) of purified sphingomyelinase are added in the presence or absence of FTY720 and incubation proceeded for 60 min at 37° C., before measuring sphingomyelin breakdown in absorbance. Blue line (top line): value of sphingomyelinase activity under normal control conditions, red line (bottom line): value of sphingomyelinase activity in the presence of FTY720.
# Embodiment 4: Direct inhibition of sphingomyelinase by FTY720 Experimental method: FTY720 is purchased from Sigma, Cas No. 162359-56-0. Sphingomyelinase activity is determined using the Sphingomyelinase Assay Kit (ab138876) kit. The experiment is divided into two groups: normal sphingomyelinase activity assay group and sphingomyelinase activity assay group in the presence of FTY720.
# [2] = test system: MEF cells deficient in ATP13A2; test: Drug screening: intracellular sphingomyelin (SM C18) content by mass spectrometry; format: cell-based, mouse; settings: ATP13A2 KO MEF cells treated 48 hours (FIG. 8 legend: 10 μM, 37° C., 24 h)
# Procedure: Experimental method: ten potential sphingolipid metabolic drugs reported in the literature for screening the modulatory effects on intracellular sphingolipids are selected, namely Fingolimod, Fluoxetine, Amitriptyline, Clomipramine, Desipramine, Siponimod, KRP-203, Amlodipine, Sertraline, Trimipramine, etc. MEF cells with disease-causing gene ATP13A2 KO are obtained using the disease model mouse embryos isolated and cultured. The MEF cells deficient in ATP13A2 are treated with the above ten drugs individually for 48 hours, and the intracellular content of sphingomyelin (SM C18) is measured by mass spectrometry.
# [3] = test system: ATP13A2 KO neurodegenerative disease model mice; test: Rotating rod test of movement function; format: in vivo, mouse
# Procedure: Experimental method: five drugs, including fingolimod, fluoxetine, clomipramine, desipramine, and trimipramine, are selected for oral administration (0.5 mg/kg) to diseased mice. The effect of the drugs on the movement function of the mice is examined one week after drug administration.
# (§1) Experimental method: The experiment is divided into four groups: C57BL/6 normal WT mice+normal saline control group (WT+C group), ATP13A2 KO neurodegenerative disease model mice+normal saline control group (KO+C group), normal WT mice+FTY720 group (WT+FTY720 group), and ATP13A2 KO neurodegenerative disease model mice+FTY720 group (KO+FTY720 group). The mice are injected intraperitoneally with FTY720 (0.25 mg/kg/day, i.p.). 5 days later, the mice are tested for movement function using a rotating rod test.
# as §1, with “group),” for “group), and”, “group). FTY720 dissolved in water is administered to” for “group). The”, “mice orally administered (0.5 mg/kg/day), and one week” for “mice are injected intraperitoneally with FTY720 (0.25 mg/kg/day, i.p.). 5 days”, “using the” for “using a”
# as §1, with “group). A single administration (10 μg, i.c.v.) is administered to the” for “group). The”, “mice by ventricular injection, and one week” for “mice are injected intraperitoneally with FTY720 (0.25 mg/kg/day, i.p.). 5 days”, “using the” for “using a”
# (§2) Experimental method: The experiment is divided into four groups: C57BL/6 normal WT mice+normal saline control group (WT+C group), ATP13A2 KO aged disease model mice+normal saline control group (KO+C group), normal WT mice+FTY720 group (WT+FTY720 group), and ATP13A2 KO neurodegenerative disease model mice+FTY720 group (KO+FTY720 group). The mice are administered orally (0.5 mg/kg/day), and after two weeks, the movement function of the mice is examined using the standing test and the rotating rod test.
# [4] = test system: ATP13A2 KO neurodegenerative disease model mice; test: Expression of genes related to sphingolipid metabolism in orbitofrontal cortex; format: in vivo, mouse; settings: one week after i.p. 0.5 mg/kg
# Procedure: Red (dark) color indicates high expression and blue (light) color indicates low expression.
# Experimental method: the experiment is divided into 4 groups: C57BL/6 normal WT mice+normal saline control group (WT+C group), ATP13A2 KO neurodegenerative disease model mice+normal saline control group (KO+C group), normal WT mice+FTY720 group (WT+FTY720 group), and ATP13A2 KO neurodegenerative disease model mice+FTY720 group (KO+FTY720 group). One week after intraperitoneal injection of FTY720 (0.5 mg/kg), samples are extracted from the orbitofrontal cortex area of mouse brain tissue, and Smpd1 Smpd2 Smpd3 Smpd4 Enpp7 Asah1 Asah2 Acer1 Acer2 Acer3 Cers1 Cers2 Cers3 Cers4 Cers5 Cers6 Col4a3 bp Cerk Gba Ugcg Degs1 Degs2 Sgpl1 Sptlc1 Sptic2 Sptic3 Abca1 Abca2 Abca7 Abca12 Abcc1 Abcg1 Abcg2 Sgms1 Sgms2 Cftr Sphk1 Sphk2 Slpr1 Kit Hexa Hexb Gal3st1 Gaphdh TERC TERT Ki67, etc. totally 47 genes related to sphingolipid metabolism are analyzed for comparison.
# [5] = test system: ATP13A2 KO neurodegenerative disease model mice; test: Lipidomic assay of striatum brain tissue (LC-MS); format: in vivo, mouse; settings: one week after i.p. 0.5 mg/kg
# Procedure: Experimental method: the experiment is divided into 4 groups: C57BL/6 normal WT mice+normal saline control group (WT+C group), ATP13A2 KO neurodegenerative disease model mice+normal saline control group (KO+C group), normal WT mice+FTY720 group (WT+FTY720 group), and ATP13A2 KO neurodegenerative disease model mice+FTY720 group (KO+FTY720 group). One week after intraperitoneal injection of FTY720 (0.5 mg/kg), mice are sampled from the striatum of brain tissue, lipids are extracted from the brain tissue samples using a lipid extraction method, appropriate internal standards are added. All lipid analysis is performed in electrospray ionization (ESI) mode using a liquid mass spectrometer.
# [6] = test system: ATP13A2 KO spastic paraplegic model mice; test: Standing test (number of standing per 30 minutes); format: in vivo, mouse
# Procedure: 1-7 days with administration treatment on the disease model mice (shaded), 7-14 days with discontinuation treatment (unshaded), and 15-21 days with restored secondary administration treatment (shaded).
# Experimental method: Spastic paraplegic ATP13A2 KO mice (KO mice) are divided into four groups and given normal saline or FTY720 dissolved in normal saline at 0.05, 0.1, and 0.5 mg/kg/day for oral administration, and the mice are tested in a standing test after 7 days of oral administration.
# Experimental method: The experiment is divided into two groups: C57BL/6 wild normal mice (WT) and ATP13A2 KO spastic paraplegic model mice (KO), which are administered FTY720 0.5 mg/k/day orally at the same time, discontinued after 0-7 days of administration, and resumed after one week of discontinuation, during which the mice are tested for standing every other day.
# as §2
# [7] = test system: aged ATP13A2 KO paraplegic mouse; test: Standing in beaker and hind limb foot-based angle (FBA) before and after drug administration; format: in vivo
# Procedure: as §2
# Meanwhile, the same aged ATP13A2 KO neurodegenerative disease mouse is placed in an upright glass beaker to observe its standing (FIG. 19). […] The angle of the hind limb to the ground (FBA, foot-based angle) in the aged ATP13A2 KO paraplegic mouse is also measured.
# [8] = test system: ATP13A2 KO neurodegenerative disease model mice; test: Transmission electron microscopy of brain tissue (lipofuscin deposition, axonal myelin sheath tearing); format: in vivo, mouse; settings: two weeks after oral administration, TEM
# Description: Experimental method: The experiments are divided into three groups: C57BL/6 wild normal mice (WT), ATP13A2 KO neurodegenerative disease model mice+normal saline control (KO+C), and FTY720 treatment ATP13A2 KO mice (KO+FTY720). Mice are executed two weeks after oral administration, and brain tissue is removed and fixed for transmission electron microscopy analysis.
# [9] = test system: ATP13A2 KO neurodegenerative disease model mice; test: Brain tissue neurotransmitter content by HPLC; format: in vivo, mouse; settings: one week after i.p. 0.5 mg/kg, striatum, hypothalamus, substantia nigra
# Procedure: Experimental method: the experiment is divided into four groups: C57BL/6 normal WT mice+normal saline control group (WT+C group), ATP13A2 KO neurodegenerative disease model mice+normal saline control group (KO+C group), normal WT mice+FTY720 group (WT+FTY720 group), and ATP13A2 KO neurodegenerative disease model mice+FTY720 group (KO+FTY720 group). One week after mice are injected intraperitoneally with FTY720 (0.5 mg/kg), samples are taken from the striatum, hypothalamus, and substantia nigra of mouse brain tissue to extract neurotransmitters in the brain. Using a high performance liquid chromatography, neurotransmitters such as dopamine, serotonin, and γ-aminobutyric acid are analyzed.
# [10] = aged ATP13A2 KO mice, oral 0.5 mg/kg/day, two weeks
structure (smiles),measurement,setting,value
"CCCCCCCCc1ccc(CCC(N)(CO)CO)cc1 [FTY720, 2-amino-2-[2-(4-octylphenyl)]-1,3-propanediol hydrochloride]",sphingomyelinase activity compared to the control group,[1],significant decrease
same,intracellular sphingomyelin (SM C18) content,[2],most obvious elevation
same,duration of stay in the rotating rod,"[3]; 0.25 mg/kg/day i.p., 5 days, ATP13A2 KO mice vs control group",significantly longer
same,duration of stay in the rotating rod,[3]; [10],significantly longer
same,"motor function (rotating rod), screen of five drugs","[3]; oral 0.5 mg/kg, one week after drug administration, ATP13A2 KO mice",improves the motor function of the ATP13A2 KO disease model mice among the five drugs with the most significant effect
same,duration of stay in the rotating rod,"[3]; oral 0.5 mg/kg/day, one week, ATP13A2 KO mice vs control group",significantly longer
same,duration of stay in the rotating rod,"[3]; single 10 μg i.c.v., one week later, ATP13A2 KO mice vs control group",significantly longer
same,"expression of cers4, cerk and sphk1",[4],downregulated
same,expression of smpd1 and enpp7,[4],upregulated
same,content of sphingomyelin and ceramide in striatum,[5],mostly restores to the normal group level
same,number of standing,[6]; [10],significant increase
same,number of standing after drug discontinuation,[6]; one week of discontinuation after 7 days oral 0.5 mg/k/day,gradual decrease
same,number of standing per 30 minutes during administration,"[6]; oral 0.5 mg/k/day, days 0-7, ATP13A2 KO paraplegic mice",increases significantly with increasing administration time
same,number of standing per 30 minutes,"[6]; oral 0.05, 0.1 and 0.5 mg/kg/day, after 7 days, ATP13A2 KO paraplegic mice",increased to different degrees in a dose-dependent manner
same,number of standing after resumption of administration,"[6]; resumed oral administration, days 15-21",gradual increase
same,standing in an upright glass beaker after drug administration,"[7]; same aged ATP13A2 KO mouse before and after drug, oral 0.5 mg/kg/day",can be photographed to stand up by clinging to the beaker wall
same,"angle of the hind limb to the ground (FBA, foot-based angle)",[7]; same aged ATP13A2 KO paraplegic mouse before and after drug,significant increase
same,number of intracellular lipofuscins in brain tissue,[8]; more than 100 cells counted,significantly reduced
same,number of torn axonal myelin sheaths in brain tissue,[8]; more than 100 myelin sheaths counted,significantly reduced
same,"neurotransmitter contents (dopamine, serotonin, γ-aminobutyric acid) in brain tissue",[9],restored to the normal group level
CN(C)CCC=C1c2ccccc2CCc2ccccc21 [amitriptyline],intracellular sphingomyelin (SM C18) content,[2],most obvious elevation
CN(C)CCCN1c2ccccc2CCc2ccc(Cl)cc21 [clomipramine],intracellular sphingomyelin (SM C18) content,[2],most obvious elevation
CNCCC(Oc1ccc(C(F)(F)F)cc1)c1ccccc1 (centres unmarked) [fluoxetine],intracellular sphingomyelin (SM C18) content,[2],most obvious elevation
